Target: T1, Rex (Staphylococcus aureus, UniProt P60386)
T1 sequence (P60386 1-211): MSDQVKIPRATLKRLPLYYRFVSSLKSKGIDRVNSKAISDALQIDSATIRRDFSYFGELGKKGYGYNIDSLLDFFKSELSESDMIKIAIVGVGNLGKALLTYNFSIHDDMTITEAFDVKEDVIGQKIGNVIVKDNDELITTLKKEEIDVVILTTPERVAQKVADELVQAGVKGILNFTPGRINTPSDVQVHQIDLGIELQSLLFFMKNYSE
Assay: isothermal titration calorimetry
Assay type: binding

SMILES	Kd
NC(=O)C1=CN([C@@H]2O[C@H](COP(=O)(O)OP(=O)(O)OC[C@H]3O[C@@H](n4cnc5c(N)ncnc54)[C@H](O)[C@@H]3O)[C@@H](O)[C@H]2O)C=CC1 [NADH]	0.095 ± 0.005 µM
NC(=O)c1ccc[n+]([C@@H]2O[C@H](COP(=O)(O)OP(=O)(O)OC[C@H]3O[C@@H](n4cnc5c(N)ncnc54)[C@H](O)[C@@H]3O)[C@@H](O)[C@H]2O)c1 [NAD^+]	150 ± 20 µM

Source: article PMC2883068 (Molecular Microbiology, 2010)
